These are literature values, as cited in patent US20210145797A1, “COMPOSITIONS FOR TREATING SKIN” (UNIVERSITY OF FLORIDA RESEARCH FOUNDATION, INCORPORATED, priority 2018, published 2021).

This series relates to herpes simplex. To be noted: topical over-the-counter treatment of herpes simplex.

`CCCCCCCCCCCCCCCCCCCCCCO` [N-docosanol]: the “improvement of time of healing” value (4.1 days to 2.5 days) is reported as 1.5 days. For the same molecule, where the note is “from a median of 4.1 days”, the “time of healing (median)” value is listed as 2.5 days.
